Patent US7375168B2, “Protein compatible methods and compounds for controlling the morphology and shrinkage of silica derived from polyol-modified silanes” (McMaster University, priority 2002, dated 2008)
Where two headings read alike, the source gives them in different places. Ends that are not written are not given here.

Columns and labels:
[1] = target: T1, dihydrofolate reductase (DHFR) (Escherichia coli, UniProt P0ABQ4); format: binding, E. coli; settings: for elution time: 20 nM compounds, 100 nM fluorescein, 2 mM ammonium acetate; for elution / retention time: column with 50 pmol DHFR initial loading (FIG. 19 Panel B), compounds infused at 20 nM, fluorescein 100 nM
T1 construct: made in house

[2] = target: T2, Src kinase, human recombinant (Homo sapiens, UniProt P12931); experiment: Src PTK inhibition, free and entrapped in GLTES/DGS silica, TR-FRET detection of peptide phosphorylation; format: biochemical; settings: substrate P1716, ATP as in FIG. 29
T2 construct: purchased Sigma-Aldrich (Oakville, ON) S5439; host or cells: insect cells

[3] = FIG. 22 Panel A, column cut from one continuously filled capillary
[4] = FIG. 22 Panel B, second column from the same capillary
[5] = Src entrapped in GLTES/DGS derived silica, read-out: IC50 Entrapped in Silica
[6] = free Src in solution, read-out: IC50 Solution

Row | Compound | elution time [1, 3] [min] | elution time [1, 4] [min] | elution / retention time [1] [min] | IC50 [2, 5] [µM] | IC50 [2, 6] [µM]
1 | O=c1ccc2ccccc2o1 [coumarin] | 2.7 | 2.6 | 2 |  | 
2 | Nc1nc2ncc(CNc3ccc(C(=O)N[C@@H](CCC(=O)O)C(=O)O)cc3)nc2c(=O)[nH]1 [folic acid] | 8.9 | 8.4 | 7 |  | 
3 | YIYGSFK [YIYGSFK] |  |  |  | 1000 to 1400 | 800 to 1200
4 | COc1cc2ncnc(Nc3ccc(Oc4ccccc4)cc3)c2cc1OC [Src Kinase Inhibitor I, 4-(4-phenoxyanilino)-6,7-dimethoxyquinazoline] |  |  |  | 0.6 to 0.8 | 0.5 to 0.7
